Data as given in US12427210B2, “Compounds comprising a fibroblast activation protein ligand and use thereof” (priority 2019, dated 2025).
Where two headings read alike, the source gives them in different places. Numbered stars: 1 amine (or outer) side, 2 acyl side, 3 side chain; on linkers, the order of the positions; unused ones are H or OH. Bridge positions count the residues as written; N and C are the ends. Peptide text beside a SMILES is read from it. * marks the point of attachment. X1 = O=C(O)CN1CCN(CC(=O)O)CCN(CC(=O)N2CCN(Cc3cc(C[*:1])cc(C[*:2])c3)CC2)CCN(CC(=O)O)CC1; Hexanoyl = CCCCCC(=O)*

Assays:
dopamine transporter (h) = dopamine transporter (h) (Homo sapiens, UniProt Q01959); assay: biochemical; conditions: read-out: % Inhibition of Specific Binding
[1] = test system: serine protease NS3 (a.a. 3-181) from Hepatitis C virus genotype 1b (mutant D168V)
Matrix metalloprotease1 = target: T1, Matrix metalloprotease1 (Homo sapiens, UniProt P03956); assay: biochemical; conditions: read-out: Percentage inhibition (%)
T1 sequence (P03956 100-469): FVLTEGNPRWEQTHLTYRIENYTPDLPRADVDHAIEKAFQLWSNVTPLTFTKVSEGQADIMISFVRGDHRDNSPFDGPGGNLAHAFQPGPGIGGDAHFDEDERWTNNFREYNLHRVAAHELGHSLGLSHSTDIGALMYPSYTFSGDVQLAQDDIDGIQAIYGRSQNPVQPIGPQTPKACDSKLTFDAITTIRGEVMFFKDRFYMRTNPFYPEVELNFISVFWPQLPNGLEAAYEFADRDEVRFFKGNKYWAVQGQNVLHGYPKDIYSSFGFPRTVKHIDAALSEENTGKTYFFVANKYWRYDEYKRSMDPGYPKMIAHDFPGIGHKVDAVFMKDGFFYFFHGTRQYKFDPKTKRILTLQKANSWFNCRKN

mu (MOP) (h) = mu (MOP) (h) (Homo sapiens, UniProt P35372); assay: biochemical; conditions: read-out: % Inhibition of Specific Binding
Beta secretase = Beta secretase (Homo sapiens, UniProt P56817); assay: biochemical; conditions: read-out: Percentage inhibition (%)
5-HT3 (h) = 5-HT3 (h) (Homo sapiens, UniProt P46098); assay: biochemical; conditions: read-out: % Inhibition of Specific Binding
Caspase-8 = Caspase-8 (Homo sapiens, UniProt Q14790); assay: biochemical; conditions: read-out: Percentage inhibition (%)
M2 (h) = M2 (h) (Homo sapiens, UniProt P08172); assay: biochemical; conditions: read-out: % Inhibition of Specific Binding
Caspase-3 = target: T2, Caspase-3 (Homo sapiens, UniProt P42574); assay: biochemical; conditions: read-out: Percentage inhibition (%)
T2 sequence (P42574 29-175 limits assumed): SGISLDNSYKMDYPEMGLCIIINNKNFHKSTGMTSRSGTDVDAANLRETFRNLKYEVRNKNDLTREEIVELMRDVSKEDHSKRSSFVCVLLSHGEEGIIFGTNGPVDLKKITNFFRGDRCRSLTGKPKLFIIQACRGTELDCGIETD
T2 sequence (P42574 176-277 limits assumed): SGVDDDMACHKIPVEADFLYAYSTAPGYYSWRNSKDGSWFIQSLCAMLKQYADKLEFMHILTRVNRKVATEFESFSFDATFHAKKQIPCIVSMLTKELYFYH

Ataxin3 = Ataxin3 (Homo sapiens, UniProt P54252); assay: biochemical; conditions: read-out: Percentage inhibition (%)
DPP7 = DPP7 (Homo sapiens, UniProt Q9UHL4); assay: biochemical; conditions: read-out: Percentage inhibition (%)
Deubiquitinase OTUD6B = target: T3, Deubiquitinase OTUD6B (Homo sapiens, UniProt Q8N6M0); assay: biochemical; conditions: read-out: Percentage inhibition (%)
T3 sequence (Q8N6M0 1-293): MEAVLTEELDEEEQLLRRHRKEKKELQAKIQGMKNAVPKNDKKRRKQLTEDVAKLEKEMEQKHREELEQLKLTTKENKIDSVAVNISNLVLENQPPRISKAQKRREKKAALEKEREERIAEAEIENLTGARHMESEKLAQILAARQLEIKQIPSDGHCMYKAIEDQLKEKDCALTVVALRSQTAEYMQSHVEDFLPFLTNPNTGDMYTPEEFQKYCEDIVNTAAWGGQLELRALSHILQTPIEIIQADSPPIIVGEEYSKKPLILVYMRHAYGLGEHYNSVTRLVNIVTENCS

[2] = target: Ubiquitin carboxyl-terminal hydrolase 14 (Homo sapiens, UniProt P54578); assay: biochemical; conditions: read-out: Percentage inhibition (%)
[3] = test system: serine protease NS3 (a.a. 3-181) from Hepatitis C virus genotype 1a (mutant D168V)
beta 2 (h) = beta 2 (h) (Homo sapiens, UniProt P07550); assay: biochemical; conditions: read-out: % Inhibition of Specific Binding
5-HT1B (h) = 5-HT1B (h) (Homo sapiens, UniProt P28222); assay: biochemical; conditions: read-out: % Inhibition of Specific Binding
DPP9 = DPP9 (Homo sapiens, UniProt Q86TI2); assay: biochemical; conditions: read-out: Percentage inhibition (%)
Caspase-6 = target: T4, Caspase-6 (Homo sapiens, UniProt P55212); assay: biochemical; conditions: read-out: Percentage inhibition (%)
T4 sequence (P55212 24-179 limits assumed): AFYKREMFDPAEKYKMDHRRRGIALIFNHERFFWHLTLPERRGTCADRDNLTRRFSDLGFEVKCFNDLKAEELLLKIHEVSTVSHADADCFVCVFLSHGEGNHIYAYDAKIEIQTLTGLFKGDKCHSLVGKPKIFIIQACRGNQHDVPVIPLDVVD
T4 sequence (P55212 194-293 limits assumed): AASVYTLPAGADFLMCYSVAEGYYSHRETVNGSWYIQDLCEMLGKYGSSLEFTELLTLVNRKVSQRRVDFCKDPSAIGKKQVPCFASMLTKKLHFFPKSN

alpha 2A (h) = alpha 2A (h) (Homo sapiens, UniProt P08913); assay: biochemical; conditions: read-out: % Inhibition of Specific Binding
CB1 (h) = CB1 (h) (Homo sapiens, UniProt P21554); assay: biochemical; conditions: read-out: % Inhibition of Specific Binding
Cathepsin L = Cathepsin L (Homo sapiens, UniProt P07711); assay: biochemical; conditions: read-out: Percentage inhibition (%)
Activated Protein C = Activated Protein C (Homo sapiens, UniProt P04070); assay: biochemical; conditions: read-out: Percentage inhibition (%)
DPP8 = DPP8 (Homo sapiens, UniProt Q6V1X1); assay: biochemical; conditions: read-out: Percentage inhibition (%)
DPP8, sequence (Q6V1X1 whole entry, species assumed): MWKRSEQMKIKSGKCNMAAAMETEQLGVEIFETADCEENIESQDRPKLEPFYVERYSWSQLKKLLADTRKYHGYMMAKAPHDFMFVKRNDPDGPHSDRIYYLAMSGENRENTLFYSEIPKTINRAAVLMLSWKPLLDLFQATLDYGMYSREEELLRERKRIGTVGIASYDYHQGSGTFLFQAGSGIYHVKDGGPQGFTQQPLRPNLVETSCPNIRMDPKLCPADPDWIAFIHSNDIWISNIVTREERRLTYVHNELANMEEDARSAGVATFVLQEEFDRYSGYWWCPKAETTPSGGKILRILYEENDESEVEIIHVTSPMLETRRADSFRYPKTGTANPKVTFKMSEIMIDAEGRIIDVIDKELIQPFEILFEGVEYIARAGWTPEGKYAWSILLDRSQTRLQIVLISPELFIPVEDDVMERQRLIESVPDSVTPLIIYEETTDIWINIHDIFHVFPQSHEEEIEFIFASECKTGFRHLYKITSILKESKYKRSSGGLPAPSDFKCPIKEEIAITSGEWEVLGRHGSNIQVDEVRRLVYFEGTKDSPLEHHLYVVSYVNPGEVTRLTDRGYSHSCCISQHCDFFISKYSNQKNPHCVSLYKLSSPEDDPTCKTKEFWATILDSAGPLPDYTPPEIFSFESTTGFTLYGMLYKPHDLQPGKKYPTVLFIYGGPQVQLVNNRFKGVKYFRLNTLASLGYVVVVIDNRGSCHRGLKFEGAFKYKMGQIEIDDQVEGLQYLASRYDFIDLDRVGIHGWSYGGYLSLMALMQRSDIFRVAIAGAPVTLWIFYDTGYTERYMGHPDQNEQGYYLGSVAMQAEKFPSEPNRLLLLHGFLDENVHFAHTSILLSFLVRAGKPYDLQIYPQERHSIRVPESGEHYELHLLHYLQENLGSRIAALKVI

DPP9, sequence (Q86TI2 whole entry, species assumed): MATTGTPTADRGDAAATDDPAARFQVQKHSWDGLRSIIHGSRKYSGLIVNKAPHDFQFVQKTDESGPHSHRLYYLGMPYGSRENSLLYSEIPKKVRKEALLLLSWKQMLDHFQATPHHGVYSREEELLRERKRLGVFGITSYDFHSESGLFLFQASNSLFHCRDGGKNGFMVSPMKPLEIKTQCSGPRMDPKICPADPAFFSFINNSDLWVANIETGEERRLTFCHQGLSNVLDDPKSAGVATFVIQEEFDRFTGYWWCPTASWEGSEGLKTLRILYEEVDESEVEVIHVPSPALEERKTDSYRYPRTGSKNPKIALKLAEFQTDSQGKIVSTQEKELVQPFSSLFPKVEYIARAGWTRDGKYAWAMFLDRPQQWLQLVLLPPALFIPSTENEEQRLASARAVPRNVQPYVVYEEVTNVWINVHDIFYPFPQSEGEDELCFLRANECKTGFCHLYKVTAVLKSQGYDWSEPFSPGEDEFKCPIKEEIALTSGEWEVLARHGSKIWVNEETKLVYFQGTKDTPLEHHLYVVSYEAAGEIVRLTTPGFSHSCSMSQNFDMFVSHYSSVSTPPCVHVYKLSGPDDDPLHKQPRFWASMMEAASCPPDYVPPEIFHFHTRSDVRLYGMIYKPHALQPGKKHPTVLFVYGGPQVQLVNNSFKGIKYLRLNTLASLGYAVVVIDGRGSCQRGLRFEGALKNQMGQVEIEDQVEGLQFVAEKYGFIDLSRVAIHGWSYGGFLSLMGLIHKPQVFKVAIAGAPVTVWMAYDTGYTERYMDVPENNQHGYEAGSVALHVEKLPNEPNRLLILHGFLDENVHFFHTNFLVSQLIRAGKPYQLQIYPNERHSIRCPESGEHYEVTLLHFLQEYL
Caspase-8, sequence (Q14790 217-374 limits assumed, species assumed): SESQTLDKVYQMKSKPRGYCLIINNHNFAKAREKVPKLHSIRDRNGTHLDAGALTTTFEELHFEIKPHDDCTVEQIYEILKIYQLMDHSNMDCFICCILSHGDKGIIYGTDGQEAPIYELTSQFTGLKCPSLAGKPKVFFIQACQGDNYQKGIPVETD
Caspase-8, sequence (Q14790 385-479 limits assumed, species assumed): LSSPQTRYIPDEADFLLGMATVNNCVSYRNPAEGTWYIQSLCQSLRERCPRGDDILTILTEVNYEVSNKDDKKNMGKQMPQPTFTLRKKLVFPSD
Cathepsin L, sequence (P07711 114-333, species assumed): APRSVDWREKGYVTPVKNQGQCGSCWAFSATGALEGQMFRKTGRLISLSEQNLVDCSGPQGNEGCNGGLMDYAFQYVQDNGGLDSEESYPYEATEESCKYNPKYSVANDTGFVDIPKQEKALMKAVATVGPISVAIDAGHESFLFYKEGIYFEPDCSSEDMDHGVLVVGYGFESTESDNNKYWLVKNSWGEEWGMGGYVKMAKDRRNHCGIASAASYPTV
Activated Protein C, sequence (P04070 212-461 limits assumed): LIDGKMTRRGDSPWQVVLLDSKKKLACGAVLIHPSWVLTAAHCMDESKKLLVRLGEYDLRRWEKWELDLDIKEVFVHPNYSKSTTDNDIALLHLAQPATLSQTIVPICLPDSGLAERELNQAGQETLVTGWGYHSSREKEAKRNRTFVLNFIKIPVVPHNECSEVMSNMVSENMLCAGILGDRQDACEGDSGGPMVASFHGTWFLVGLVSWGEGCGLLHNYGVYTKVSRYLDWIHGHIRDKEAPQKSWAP
Activated Protein C, sequence (P04070 43-197 partner limits assumed): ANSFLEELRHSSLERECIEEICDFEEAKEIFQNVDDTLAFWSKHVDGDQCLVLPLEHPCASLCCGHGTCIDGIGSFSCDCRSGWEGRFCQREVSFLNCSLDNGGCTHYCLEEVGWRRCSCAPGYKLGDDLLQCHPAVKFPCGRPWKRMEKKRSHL
Ataxin3, sequence (P54252 whole entry, species assumed): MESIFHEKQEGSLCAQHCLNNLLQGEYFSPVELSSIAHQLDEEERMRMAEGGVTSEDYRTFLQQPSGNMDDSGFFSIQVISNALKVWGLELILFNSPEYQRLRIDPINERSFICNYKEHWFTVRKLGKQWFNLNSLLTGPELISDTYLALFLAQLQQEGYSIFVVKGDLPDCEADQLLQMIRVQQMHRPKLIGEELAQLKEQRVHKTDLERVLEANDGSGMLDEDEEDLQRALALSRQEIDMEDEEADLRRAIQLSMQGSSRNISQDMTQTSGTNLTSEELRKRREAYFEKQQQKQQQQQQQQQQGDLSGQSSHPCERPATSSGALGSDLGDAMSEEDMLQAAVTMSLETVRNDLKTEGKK
Ubiquitin carboxyl-terminal hydrolase 14, sequence (P54578 whole entry): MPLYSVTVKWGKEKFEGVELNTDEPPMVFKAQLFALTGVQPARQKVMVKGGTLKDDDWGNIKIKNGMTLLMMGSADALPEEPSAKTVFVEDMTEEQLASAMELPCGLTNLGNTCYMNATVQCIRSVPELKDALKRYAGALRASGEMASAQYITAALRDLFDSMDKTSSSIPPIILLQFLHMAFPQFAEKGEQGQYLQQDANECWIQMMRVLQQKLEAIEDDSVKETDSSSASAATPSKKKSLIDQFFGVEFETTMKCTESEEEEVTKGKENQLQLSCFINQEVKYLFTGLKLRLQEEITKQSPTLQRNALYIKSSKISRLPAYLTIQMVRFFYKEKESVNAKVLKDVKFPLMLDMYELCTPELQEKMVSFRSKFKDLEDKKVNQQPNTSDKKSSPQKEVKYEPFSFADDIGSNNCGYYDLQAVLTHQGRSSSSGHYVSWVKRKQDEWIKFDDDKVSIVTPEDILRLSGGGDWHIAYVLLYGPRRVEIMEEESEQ
Beta secretase, sequence (P56817 46-501): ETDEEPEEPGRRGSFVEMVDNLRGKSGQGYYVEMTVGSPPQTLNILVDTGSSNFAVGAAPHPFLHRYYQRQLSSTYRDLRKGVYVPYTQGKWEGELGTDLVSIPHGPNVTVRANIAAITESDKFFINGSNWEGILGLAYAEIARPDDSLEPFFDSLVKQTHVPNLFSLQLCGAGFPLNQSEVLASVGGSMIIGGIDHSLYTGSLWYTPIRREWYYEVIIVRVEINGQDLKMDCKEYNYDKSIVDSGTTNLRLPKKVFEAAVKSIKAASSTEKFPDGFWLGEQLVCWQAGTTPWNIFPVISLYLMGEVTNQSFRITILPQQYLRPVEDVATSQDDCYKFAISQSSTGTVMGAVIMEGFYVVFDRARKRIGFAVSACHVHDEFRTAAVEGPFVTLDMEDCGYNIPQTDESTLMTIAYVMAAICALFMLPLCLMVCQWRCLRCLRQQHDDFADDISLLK
CB1 (h), sequence (P21554 whole entry): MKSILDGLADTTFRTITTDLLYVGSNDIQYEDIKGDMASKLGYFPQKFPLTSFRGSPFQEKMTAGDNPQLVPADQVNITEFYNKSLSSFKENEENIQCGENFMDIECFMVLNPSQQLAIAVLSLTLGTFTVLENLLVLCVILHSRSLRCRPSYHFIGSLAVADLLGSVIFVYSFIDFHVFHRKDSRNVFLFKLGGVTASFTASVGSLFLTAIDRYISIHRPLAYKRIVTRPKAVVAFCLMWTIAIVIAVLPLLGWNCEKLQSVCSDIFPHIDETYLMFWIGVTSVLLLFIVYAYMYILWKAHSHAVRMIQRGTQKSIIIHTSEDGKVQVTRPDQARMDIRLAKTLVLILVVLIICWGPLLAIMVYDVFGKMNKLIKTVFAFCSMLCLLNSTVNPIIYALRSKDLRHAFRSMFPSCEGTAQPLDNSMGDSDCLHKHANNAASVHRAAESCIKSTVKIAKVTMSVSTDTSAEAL
M2 (h), sequence (P08172 whole entry): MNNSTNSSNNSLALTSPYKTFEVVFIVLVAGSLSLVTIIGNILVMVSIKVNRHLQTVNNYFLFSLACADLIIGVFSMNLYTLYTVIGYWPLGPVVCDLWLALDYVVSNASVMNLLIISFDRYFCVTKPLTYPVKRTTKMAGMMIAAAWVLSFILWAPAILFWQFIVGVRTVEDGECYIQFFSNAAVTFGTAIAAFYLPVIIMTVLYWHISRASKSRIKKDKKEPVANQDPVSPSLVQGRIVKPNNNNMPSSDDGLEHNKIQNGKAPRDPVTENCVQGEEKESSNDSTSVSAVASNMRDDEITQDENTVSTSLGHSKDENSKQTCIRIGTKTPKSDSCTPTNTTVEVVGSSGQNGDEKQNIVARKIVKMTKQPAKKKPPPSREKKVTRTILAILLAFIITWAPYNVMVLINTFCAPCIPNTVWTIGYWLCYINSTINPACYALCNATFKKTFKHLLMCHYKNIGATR

SMILES	inhibition at 10 µM (dopamine transporter (h)) [%]	Percentage inhibition (%) ([1]; 1 μM)	Percentage inhibition (%) ([1]; 10 μM)	inhibition at 1 µM (Matrix metalloprotease1) [%]	inhibition at 10 µM (Matrix metalloprotease1) [%]	inhibition at 10 µM (mu (MOP) (h)) [%]	inhibition at 1 µM (Beta secretase) [%]	inhibition at 10 µM (Beta secretase) [%]	inhibition at 10 µM (5-HT3 (h)) [%]	inhibition at 1 µM (Caspase-8) [%]	inhibition at 10 µM (Caspase-8) [%]	inhibition at 10 µM (M2 (h)) [%]	inhibition at 1 µM (Caspase-3) [%]	inhibition at 10 µM (Caspase-3) [%]	inhibition at 1 µM (Ataxin3) [%]	inhibition at 10 µM (Ataxin3) [%]	inhibition at 1 µM (DPP7) [%]	inhibition at 10 µM (DPP7) [%]	inhibition at 1 µM (Deubiquitinase OTUD6B) [%]	inhibition at 10 µM (Deubiquitinase OTUD6B) [%]	also measured
CCCCCC(=O)N[C@H]1CSCc2cc(CSCCNC(=O)CN3CCN(CC(=O)O)CCN(CC(=O)O)CCN(CC(=O)O)CC3)cc(c2)CSC[C@@H](C(=O)O)NC(=O)[C@H](Cc2ccccc2)NC(=O)[C@H](CCC(N)=O)NC(=O)[C@H]([C@@H](C)O)NC(=O)[C@@H]2CCCN2C(=O)[C@@H]2CCCN2C1=O [Compound 3BP-3554, Hex-[Cys(tMeBn(DOTA-AET))-Pro-Pro-Thr-Gln-Phe-Cys]-OH]	7	−2	−17	1	-7	-10	1	7	4	0	-3	7	-2	-1	2	-1	-1	-7	0	0	inhibition at 1 µM [2]: 1%; inhibition at 10 µM [2]: 2%; Percentage inhibition (%) ([3]; 1 μM): −39%; Percentage inhibition (%) ([3]; 10 μM): −372%; inhibition at 10 µM (beta 2 (h)): 8%; inhibition at 10 µM (5-HT1B (h)): 8%; inhibition at 1 µM (DPP9): -1%; inhibition at 10 µM (DPP9): -5%; inhibition at 1 µM (Caspase-6): 6%; inhibition at 10 µM (Caspase-6): -3%; inhibition at 10 µM (alpha 2A (h)): 2%; inhibition at 10 µM (CB1 (h)): -7%; inhibition at 1 µM (Cathepsin L): 0%; inhibition at 10 µM (Cathepsin L): -6%; inhibition at 1 µM (Activated Protein C): -11%; inhibition at 10 µM (Activated Protein C): 1%; inhibition at 1 µM (DPP8): 1%; inhibition at 10 µM (DPP8): 11%
CCCCCC(=O)N[C@H]1CSCc2cc(cc(CN3CCN(C(=O)CN4CCN(CC(=O)O)CCN(CC(=O)O)CCN(CC(=O)O)CC4)CC3)c2)CSC[C@@H](C(=O)N[C@@H](CC(=O)O)C(N)=O)NC(=O)[C@H](Cc2ccccc2)NC(=O)[C@H](CCC(N)=O)NC(=O)[C@H]([C@@H](C)O)NC(=O)[C@@H]2CCCN2C(=O)[C@@H]2CCCN2C1=O [Compound 3BP-3407, Hex-[Cys(tMeBn(DOTA-PP))-Pro-Pro-Thr-Gln-Phe-Cys]-Asp-NH2] (Hexanoyl-CPPTQFCD-NH2; linker 1-7 via X1)	12	1	−6	-1	2	2	-8	-5	2	0	0	-4	1	-2	1	10	2	-3	2	15	inhibition at 1 µM [2]: -1%; inhibition at 10 µM [2]: 5%; Percentage inhibition (%) ([3]; 1 μM): 1%; Percentage inhibition (%) ([3]; 10 μM): −68%; inhibition at 10 µM (beta 2 (h)): 4%; inhibition at 10 µM (5-HT1B (h)): -11%; inhibition at 1 µM (DPP9): -1%; inhibition at 10 µM (DPP9): 0%; inhibition at 1 µM (Caspase-6): 1%; inhibition at 10 µM (Caspase-6): -1%; inhibition at 10 µM (alpha 2A (h)): -9%; inhibition at 10 µM (CB1 (h)): 5%; inhibition at 1 µM (Cathepsin L): 3%; inhibition at 10 µM (Cathepsin L): 6%; inhibition at 1 µM (Activated Protein C): 5%; inhibition at 10 µM (Activated Protein C): 8%; inhibition at 1 µM (DPP8): 1%; inhibition at 10 µM (DPP8): 5%
